Data set [1] can be described thus: Apparent permeability in MDCK-II cells. Type of data set: ADME, cell-based, Canis lupus familiaris. The settings on record: dog.
Data set [2] is described as follows: MRT in fasted Wistar-Han rat measured up to 24 hrs by LC-MS/MS analysis. As to conditions: in vivo. Type of data set: ADME.
Data set [3] is described as follows: Oral bioavailability in fasted Wistar-Han rat measured up to 24 hrs by LC-MS/MS analysis. As to conditions: in vivo. Type of data set: ADME, organism-based.
Data set [4] is described as follows: Plasma clearance in fasted Wistar-Han rat measured up to 24 hrs by LC-MS/MS analysis. The format is ADME.
The target in data set [5] is T1, GTPase KRas (Homo sapiens, UniProt P01116, G12C). Kind of data set: Inhibition of recombinant biotinylated KRAS G12C mutant (unknown origin) assessed as human SOS catalyzed nucleotide exchange measured after 60 mins by TR-FRET based guanine nucleotide exchange assay.
T1 sequence (P01116 whole entry G12C): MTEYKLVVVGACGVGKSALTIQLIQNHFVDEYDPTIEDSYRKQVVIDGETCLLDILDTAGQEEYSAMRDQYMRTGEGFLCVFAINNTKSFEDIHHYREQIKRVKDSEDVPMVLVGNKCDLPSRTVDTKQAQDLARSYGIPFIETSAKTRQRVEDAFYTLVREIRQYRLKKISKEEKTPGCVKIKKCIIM
A short description of data set [6]: Unbound plasma clearance in fasted Wistar-Han rat measured up to 24 hrs by LC-MS/MS analysis. Type of data set: ADME.
Data set [7] has as its target T1, GTPase KRas. Kind of data set: Inhibition of KRAS G12C mutant in human NCI-H358 cells assessed as reduction in Erk1/2 phosphorylation level measured for 8 hrs by Western blot analysis. The format is cell-based.
A short description of data set [8]: Oral bioavailability in fasted Wistar-Han rat measured up to 24 hrs pre-dosed with ABT by LC-MS/MS analysis. Type of data set: ADME, organism-based. As to conditions: in vivo.
Data set [9] in a line: Unbound plasma clearance in male Beagle dog measured up to 24 hrs by LC-MS/MS analysis. The format is ADME, Canis lupus familiaris.
The nature of data set [10]: Oral bioavailability in male Beagle dog measured up to 24 hrs by LC-MS/MS analysis. The format is ADME, organism-based, Canis lupus familiaris. The settings on record: in vivo.
A short description of data set [11]: Plasma clearance in male Beagle dog measured up to 24 hrs by LC-MS/MS analysis. Type of data set: ADME, Canis lupus familiaris.
A short description of data set [12]: MRT in male Beagle dog measured up to 24 hrs by LC-MS/MS analysis. The format is ADME, Canis lupus familiaris. As to conditions: in vivo.
A further data set has as its system MIA PaCa-2. Kind of data set: In vivo antitumor activity against […] cells xenografted in rat model assessed as decrease in tumor volume at 30 mg/kg, po qd measured up to 21 days. As to conditions: Homo sapiens, time <= 21.0 day. Type of data set: functional, organism-based.
The next data set has as its system PDX LU2529. Kind of data set: In vivo antitumor activity against patient-derived PDX LU2529 cells xenografted in rat model assessed as decrease in tumor volume at 30 mg/kg, po qd measured up to 21 days. The format is functional, organism-based. As to conditions: Homo sapiens, time <= 21.0 day.
For a further data set, the system named is PDX LU2512. Kind of data set: In vivo antitumor activity against patient-derived PDX LU2512 cells xenografted in rat model assessed as decrease in tumor volume at 30 mg/kg, po qd measured up to 21 days. The settings on record: Homo sapiens, time <= 21.0 day. Type of data set: functional, organism-based.

Activity calls are given as the source filed them. No cut-off for these calls is given here.

With `C=CC(=O)N1C[C@H](C)N(c2nc(=O)n3c4nc(c(F)cc24)-c2c(F)cccc2OCCOc2ccnc(C(C)C)c2-3)C[C@H]1C`, the Papp in data set [1] was found to be 8 ×10⁻⁶ cm/s. In data set [2], this compound had an MRT of 0.6 h. Moreover, the bioavailability in [3] was found to be 5%; in data set [8], 11%. For the same compound, the clearance in [4] amounted to 49 mL/min/kg. Further, the IC50 on GTPase KRas [5] is 6.5 nM; on GTPase KRas [7], 11 nM. In data set [6], this compound showed a CL free of 299 mL/min/kg.
In data set [2], `C=CC(=O)N1C[C@H](C)N(c2nc(=O)n3c4nc(c(F)cc24)-c2c(F)cc(F)cc2OCCOc2ccnc(C(C)C)c2-3)C[C@H]1C` gave an MRT of 0.7 h. The compound also yielded a bioavailability in data set [3] of 12%. Also, the clearance in data set [4] came out at 40 mL/min/kg. In addition, the IC50 is 6.9 nM on GTPase KRas [5] and 16 nM on GTPase KRas [7]. The CL free in data set [6] is 407 mL/min/kg.
On to `C=CC(=O)N1C[C@H](C)N(c2nc(=O)n3c4nc(c(F)cc24)-c2c(F)cc(F)cc2OCC(F)(F)CCc2ccnc(C(C)C)c2-3)C[C@H]1C`, for which the Papp in data set [1] amounted to 31 ×10⁻⁶ cm/s. Besides, the CL free was found to be 194 mL/min/kg in [9] and 270 mL/min/kg in data set [6]. Moreover, the results for the MRT in data set [2] and in data set [12] were 2.6 h and 2.5 h, respectively. The bioavailability in [3] amounted to 53%; in data set [10], 76%. Moreover, the figures for the clearance in data set [4] and in [11] were 10 mL/min/kg and 9.7 mL/min/kg, respectively. The IC50 at GTPase KRas [5] was 1.1 nM; at GTPase KRas [7], 8.9 nM.
Take `C=CC(=O)N1C[C@H](C)N(c2nc(=O)n3c4nc(c(C)cc24)-c2c(F)ccc(F)c2OCCOc2ccnc(C(C)C)c2-3)C[C@H]1C`: the Papp in [1] was 13 ×10⁻⁶ cm/s. Also, in data set [2], the MRT was found to be 0.9 h. This compound also had a bioavailability in data set [3] of 17%. In [4], this compound showed a clearance of 12 mL/min/kg. For the same compound, the IC50 on GTPase KRas [5] came to 4.5 nM; at GTPase KRas [7], 30 nM. In data set [6], this compound showed a CL free of 148 mL/min/kg.
`C=CC(=O)N1CCN(c2nc(=O)n3c4nc(c(F)cc24)-c2c(F)cccc2OCCCCc2ccnc(C(C)C)c2-3)[C@@H](C)C1`: the Papp in data set [1] is 17 ×10⁻⁶ cm/s. In addition, the MRT in data set [2] stood at 0.4 h. Further, the bioavailability in data set [3] came out at 2%; in [8], 50%. Also, the clearance in [4] is 80 mL/min/kg. Further, the values for the IC50 at GTPase KRas [5] and on GTPase KRas [7] were 1.2 nM and 4.8 nM, respectively. In addition, the CL free in data set [6] was 770 mL/min/kg.
As to `C=CC(=O)N1CCN(c2nc(=O)n3c4nc(c(Cl)cc24)-c2c(F)cccc2OCCc2ccccc2-3)[C@@H](C)C1`, the IC50 on GTPase KRas [5] was determined as 1410 nM; on GTPase KRas [7], 3830 nM.
In the case of `C=CC(=O)N1C[C@H](C)N(c2nc(=O)n3c4nc(c(Cl)cc24)-c2c(F)ccc(F)c2OCCOc2ccnc(C(C)C)c2-3)C[C@H]1C`, the Papp in [1] was determined as 20 ×10⁻⁶ cm/s. Moreover, the CL free was determined as 243 mL/min/kg in [9] and 606 mL/min/kg in data set [6]. The result with MIA PaCa-2, with PDX LU2529 and in the data set with PDX LU2512 was Active. In addition, the MRT in data set [2] and in data set [12] was 1.1 h in each case. The bioavailability in [3] turned out to be 61%; in data set [10] it was 58%. Further, the values for the clearance in data set [4] and in data set [11] were 22 mL/min/kg and 28 mL/min/kg, respectively. Besides, the IC50 at GTPase KRas [5] came to 1.2 nM; at GTPase KRas [7] it was 9 nM.
Turning to `C=CC(=O)N1CCN(c2nc(=O)n3c4nc(c(F)cc24)-c2c(F)cccc2OCCCOc2ccnc(C(C)C)c2-3)[C@@H](C)C1`, the IC50 on GTPase KRas [5] was 11 nM; on GTPase KRas [7], 21 nM.
`C=CC(=O)N1C[C@H](C)N(c2nc(=O)n3c4nc(c(F)cc24)-c2c(ccc(F)c2F)OCCOc2ccnc(C(C)C)c2-3)C[C@H]1C`: in data set [1], the Papp was determined as 9 ×10⁻⁶ cm/s. Moreover, in [2], the MRT turned out to be 0.7 h. Moreover, the bioavailability in [3] stood at 10%. In data set [4], this compound had a clearance of 26 mL/min/kg. Also, the IC50 on GTPase KRas [5] turned out to be 5.3 nM; at GTPase KRas [7] it was 10 nM. This compound also gave a CL free in [6] of 434 mL/min/kg.
Regarding `C=CC(=O)N1CCN(c2nc(=O)n3c4nc(c(F)cc24)-c2c(F)cccc2OCCCc2ccnc(C(C)C)c2-3)[C@@H](C)C1`, the half-inhibitory concentration (IC50) at GTPase KRas [5] came to 4.3 nM; at GTPase KRas [7], 5.4 nM.
With `C=CC(=O)N1C[C@H](C)N(c2nc(=O)n3c4nc(c(F)cc24)-c2c(F)ccc(F)c2OCCOc2ccnc(C(C)C)c2-3)C[C@H]1C`, the apparent permeability coefficient (Papp) in [1] worked out at 15 ×10⁻⁶ cm/s. Also, the CL free in [9] is 130 mL/min/kg; in [6], 126 mL/min/kg. Also, the mean residence time (MRT) stood at 1.4 h in [2] and 0.8 h in data set [12]. The bioavailability amounted to 25% in data set [3] and 67% in [10]. Also, the clearance was 13 mL/min/kg in data set [4] and 32 mL/min/kg in data set [11]. The results for the IC50 at GTPase KRas [5] and at GTPase KRas [7] were 3.5 nM and 28 nM, respectively.
In the case of `C=CC(=O)N1C[C@H](C)N(c2nc(=O)n3c4nc(c(F)cc24)-c2c(F)cccc2OCCCc2ccnc(C(C)C)c2-3)C[C@H]1C`, the IC50 on GTPase KRas [5] is 1.7 nM; on GTPase KRas [7], 7.4 nM.
`C=CC(=O)N1C[C@H](C)N(c2nc(=O)n3c4nc(c(F)cc24)-c2c(F)cccc2OCC(F)(F)CCc2ccnc(C(C)C)c2-3)C[C@H]1C`: the Papp in data set [1] is 23 ×10⁻⁶ cm/s. Besides, the values for the CL free in data set [9] and in data set [6] were 160 mL/min/kg and 113 mL/min/kg, respectively. Also, the MRT was found to be 2.3 h in data set [2] and 2.2 h in data set [12]. Besides, the bioavailability in data set [3] stood at 12%; in [10], 59%. The clearance is 9.7 mL/min/kg in data set [4] and 18 mL/min/kg in data set [11]. Further, the IC50 on GTPase KRas [5] stood at 2.9 nM; on GTPase KRas [7], 6.6 nM.
In the case of `C=CC(=O)N1C[C@H](C)N(c2nc(=O)n3c4nc(c(F)cc24)-c2c(ccc(F)c2F)OCC(F)(F)CCc2ccnc(C(C)C)c2-3)C[C@H]1C`, the Papp in data set [1] stood at 25 ×10⁻⁶ cm/s. Moreover, the CL free in data set [9] is 128 mL/min/kg; in data set [6], 213 mL/min/kg. For the same compound, the figures for the MRT in data set [2] and in data set [12] were 1.8 h and 3.3 h, respectively. The bioavailability in data set [3] is 42%; in data set [10] it was 80%. Besides, the results for the clearance in [4] and in data set [11] were 13 mL/min/kg and 7.3 mL/min/kg, respectively. For the same compound, the IC50 turned out to be 3 nM at GTPase KRas [5] and 5.2 nM at GTPase KRas [7].
